Experimental data reported in PubChem BioAssay (NCI).
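Dose response: 5 concentrations. Exposure: 48 h. Format: 96-well plates. Endpoint: linear interpolation; highest concentration if not reached. Abbreviation: GI50, concentration required for 50% inhibition of growth. Definition used: TGI = concentration required for complete inhibition of growth.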

Assays:
Experiment in all cases: NCI tumour cell line growth inhibition, 48 h
786-0 renal = tested on: 786-0 renal
A498 renal = tested on: A498 renal
A549 NSCLC = tested on: A549 NSCLC
ACHN renal = tested on: ACHN renal
BT-549 breast = tested on: BT-549 breast
CAKI-1 renal = tested on: CAKI-1 renal
COLO 205 colon = tested on: COLO 205 colon
DU-145 prostate = tested on: DU-145 prostate
EKVX NSCLC = tested on: EKVX NSCLC
HCC-2998 colon = tested on: HCC-2998 colon
HCT-116 colon = tested on: HCT-116 colon
HCT-15 colon = tested on: HCT-15 colon
HL-60(TB) leukemia = tested on: HL-60(TB) leukemia
HOP-62 NSCLC = tested on: HOP-62 NSCLC
HOP-92 NSCLC = tested on: HOP-92 NSCLC
HS 578T breast = tested on: HS 578T breast
IGROV1 ovarian = tested on: IGROV1 ovarian
KM12 colon = tested on: KM12 colon
LOX IMVI melanoma = tested on: LOX IMVI melanoma
M14 melanoma = tested on: M14 melanoma
MALME-3M melanoma = tested on: MALME-3M melanoma
MCF7 breast = tested on: MCF7 breast
MDA-MB-231 breast = tested on: MDA-MB-231 breast
MDA-MB-435 = tested on: MDA-MB-435
MOLT-4 leukemia = tested on: MOLT-4 leukemia
NCI-H226 lung = tested on: NCI-H226 lung
NCI-H460 lung = tested on: NCI-H460 lung
NCI-H522 lung = tested on: NCI-H522 lung
NCI/ADR-RES ovarian = tested on: NCI/ADR-RES ovarian
OVCAR-3 ovarian = tested on: OVCAR-3 ovarian
OVCAR-4 ovarian = tested on: OVCAR-4 ovarian
OVCAR-5 ovarian = tested on: OVCAR-5 ovarian
OVCAR-8 ovarian = tested on: OVCAR-8 ovarian
PC-3 prostate = tested on: PC-3 prostate
RXF 393 renal = tested on: RXF 393 renal
SF-295 CNS = tested on: SF-295 CNS
SF-539 CNS = tested on: SF-539 CNS
SK-MEL-2 melanoma = tested on: SK-MEL-2 melanoma
SK-MEL-28 melanoma = tested on: SK-MEL-28 melanoma
SK-MEL-5 melanoma = tested on: SK-MEL-5 melanoma
SK-OV-3 ovarian = tested on: SK-OV-3 ovarian
SN12C renal = tested on: SN12C renal
SNB-19 CNS = tested on: SNB-19 CNS
SNB-75 CNS = tested on: SNB-75 CNS
SR leukemia = tested on: SR leukemia
SW-620 colon = tested on: SW-620 colon
T-47D breast = tested on: T-47D breast
TK-10 renal = tested on: TK-10 renal
U251 CNS = tested on: U251 CNS
UACC-257 melanoma = tested on: UACC-257 melanoma
UACC-62 melanoma = tested on: UACC-62 melanoma
UO-31 renal = tested on: UO-31 renal

COc1cc2c3c(n(CCCNC4CCCC4)c(=O)c2cc1OC)-c1cc2c(cc1C3=O)OCO2
GI50 (786-0 renal): 1610 nM | TGI (786-0 renal): 3.24 µM | GI50 (A498 renal): 15.9 µM | TGI (A498 renal): 29.7 µM | GI50 (A549 NSCLC): 7.46 µM | TGI (A549 NSCLC): 25.8 µM | GI50 (ACHN renal): 1490 nM | TGI (ACHN renal): 2840 nM | GI50 (BT-549 breast): 13.8 µM | TGI (BT-549 breast): 27.3 µM | GI50 (CAKI-1 renal): 1240 nM | TGI (CAKI-1 renal): 2500 nM | GI50 (COLO 205 colon): 1350 nM | TGI (COLO 205 colon): 15.4 µM | GI50 (DU-145 prostate): 1440 nM | TGI (DU-145 prostate): 2820 nM | GI50 (EKVX NSCLC): 4.64 µM | TGI (EKVX NSCLC): 17 µM | GI50 (HCC-2998 colon): 3.45 µM | TGI (HCC-2998 colon): 15.7 µM | GI50 (HCT-116 colon): 1200 nM | TGI (HCT-116 colon): 2670 nM | GI50 (HCT-15 colon): 1590 nM | TGI (HCT-15 colon): 3.43 µM | GI50 (HL-60(TB) leukemia): 1020 nM | TGI (HL-60(TB) leukemia): 2660 nM | GI50 (HOP-62 NSCLC): 2380 nM | TGI (HOP-62 NSCLC): 20.9 µM | GI50 (HOP-92 NSCLC): 12.5 µM | TGI (HOP-92 NSCLC): 26.1 µM | GI50 (HS 578T breast): 19.9 µM | TGI (HS 578T breast): 81 µM | GI50 (IGROV1 ovarian): 1400 nM | TGI (IGROV1 ovarian): 3.65 µM | GI50 (KM12 colon): 11 µM | TGI (KM12 colon): 25.2 µM | GI50 (LOX IMVI melanoma): 1030 nM | TGI (LOX IMVI melanoma): 2330 nM | GI50 (M14 melanoma): 1480 nM | TGI (M14 melanoma): 2900 nM | GI50 (MALME-3M melanoma): 1690 nM | TGI (MALME-3M melanoma): 3.27 µM | GI50 (MCF7 breast): 673 nM | TGI (MCF7 breast): 2320 nM | GI50 (MDA-MB-231 breast): 1570 nM | TGI (MDA-MB-231 breast): 3.29 µM | GI50 (MDA-MB-435): 1650 nM | TGI (MDA-MB-435): 3.19 µM | GI50 (MOLT-4 leukemia): 48.6 nM | TGI (MOLT-4 leukemia): 3.37 µM | GI50 (NCI-H226 lung): 17.8 µM | TGI (NCI-H226 lung): 42 µM | GI50 (NCI-H460 lung): 446 nM | TGI (NCI-H460 lung): 1980 nM | GI50 (NCI-H522 lung): 5.26 µM | TGI (NCI-H522 lung): 32 µM | GI50 (NCI/ADR-RES ovarian): 2250 nM | TGI (NCI/ADR-RES ovarian): 15.7 µM | GI50 (OVCAR-3 ovarian): 1640 nM | TGI (OVCAR-3 ovarian): 3.31 µM | GI50 (OVCAR-4 ovarian): 1910 nM | TGI (OVCAR-4 ovarian): 3.99 µM | GI50 (OVCAR-5 ovarian): 2460 nM | TGI (OVCAR-5 ovarian): 5.56 µM | GI50 (OVCAR-8 ovarian): 1450 nM | TGI (OVCAR-8 ovarian): 2980 nM | GI50 (PC-3 prostate): 10.3 µM | TGI (PC-3 prostate): 31.9 µM | GI50 (RXF 393 renal): 3.83 µM | TGI (RXF 393 renal): 15.5 µM | GI50 (SF-295 CNS): 628 nM | TGI (SF-295 CNS): 21.7 µM | GI50 (SF-539 CNS): 1510 nM | TGI (SF-539 CNS): 2980 nM | GI50 (SK-MEL-2 melanoma): 19 µM | TGI (SK-MEL-2 melanoma): 35.6 µM | GI50 (SK-MEL-28 melanoma): 15.8 µM | TGI (SK-MEL-28 melanoma): 30.6 µM | GI50 (SK-MEL-5 melanoma): 17.3 µM | TGI (SK-MEL-5 melanoma): 31.2 µM | GI50 (SK-OV-3 ovarian): 12.7 µM | TGI (SK-OV-3 ovarian): 26.4 µM | GI50 (SN12C renal): 1800 nM | TGI (SN12C renal): 4.3 µM | GI50 (SNB-19 CNS): 2960 nM | TGI (SNB-19 CNS): 25.5 µM | GI50 (SNB-75 CNS): 13.8 µM | TGI (SNB-75 CNS): 27.3 µM | GI50 (SR leukemia): 133 nM | TGI (SR leukemia): 583 nM | GI50 (SW-620 colon): 1090 nM | TGI (SW-620 colon): 2440 nM | GI50 (T-47D breast): 16.6 µM | TGI (T-47D breast): 36.2 µM | GI50 (TK-10 renal): 22 µM | TGI (TK-10 renal): 36.8 µM | GI50 (U251 CNS): 1270 nM | TGI (U251 CNS): 2570 nM | GI50 (UACC-257 melanoma): 15.8 µM | TGI (UACC-257 melanoma): 30.3 µM | GI50 (UACC-62 melanoma): 13 µM | TGI (UACC-62 melanoma): 30.2 µM | GI50 (UO-31 renal): 1660 nM | TGI (UO-31 renal): 4.21 µM
